{"source": "paper PMC4116524", "about": "“A virtual screen identified C96 as a novel inhibitor of phosphatidylinositol 3-kinase that displays potent preclinical activity against multiple myeloma in vitro and in vivo” (Oncotarget, 2014)", "key": {"OPM2 cells": {"system": "OPM2 cells", "test": "Cell migration analysis by the transwell assay", "format": "cell-based", "settings": "6 hrs", "procedure": "Next, we evaluated the effects of C96 on MM cell growth by measuring viable cells after starvation/IGF-1 stimulation in the presence of C96. As shown in Supplemental Figure 2A, IGF-1 stimulated MM cell growth, but it was suppressed by C96. We also examined the effects of C96 on MM cell migration upon IGF-1 stimulation.\nThis assay was performed as described previously. Briefly, MM cells OPM2, JJN3 and LP1 were serum starved overnight and then re-suspended in 70 μL of IMDM medium/0.5% fetal calf serum with or without C96. These cells were then loaded onto polycarbonate membranes (8-μm pore size) separating 2 chambers of a transwell (Corning Costar, Cambridge, MA). Medium/0.1% FCS (500 μL) containing agonist IGF-1 was added to the lower chamber of the Transwell cluster plates. After 6 hrs, cells migrating into the lower chamber were counted using a hemacytometer.\nSupplementary Figure S2: C96 inhibits MM cell proliferation and migration in the presence of IGF-1. […] Cells were then incubated for another 24 hr, cell number was analyzed using MTT staining. […] Cells were loaded onto the upper chamber of a transwell, and the lower chamber was filled with IMDM containing agonist IGF-1.After 6 hrs, cells migrating into the lower chamber were counted using a hemacytometer. […]"}, "AKT1": {"biological_target": "T1, AKT1 (Homo sapiens, UniProt P31749)", "T1 construct": "purchased Reaction Biology Corp", "T1 sequence (P31749 whole entry)": "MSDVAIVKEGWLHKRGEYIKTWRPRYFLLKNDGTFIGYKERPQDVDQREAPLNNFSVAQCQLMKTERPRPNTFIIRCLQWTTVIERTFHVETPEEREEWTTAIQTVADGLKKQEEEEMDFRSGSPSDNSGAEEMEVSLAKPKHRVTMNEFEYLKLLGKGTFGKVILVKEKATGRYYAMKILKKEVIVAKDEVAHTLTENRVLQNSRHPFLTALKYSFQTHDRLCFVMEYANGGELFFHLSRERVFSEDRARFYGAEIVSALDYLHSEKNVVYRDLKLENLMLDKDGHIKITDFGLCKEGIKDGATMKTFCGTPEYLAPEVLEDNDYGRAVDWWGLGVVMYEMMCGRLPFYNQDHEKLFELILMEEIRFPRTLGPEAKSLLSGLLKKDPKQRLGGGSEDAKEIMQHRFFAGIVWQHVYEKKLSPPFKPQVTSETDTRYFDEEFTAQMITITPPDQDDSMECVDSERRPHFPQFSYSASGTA", "test": "Kinase activity in cell-free assay (HotSpot)", "format": "biochemical", "procedure": "(§1) Kinase activity in the presence of C96 was performed by using the HotSpot technology (Reaction Biology Corp., Malvern, PA, USA). Briefly, kinases (PI3Kα, β, δ, γ, AKT1, 2, 3, and mTOR) and substrates were diluted in reaction buffer. Subsequently, 5 nL of serially diluted C96 (in pure DMSO) was delivered into diluted kinase and substrate mixture by using Echo 550 (LabCyte Inc. Sunnyvale, CA). The reaction was started by adding ^33P-ATP (hot ATP) into the reaction mixture (the final concentration was 10 μM) and stopped after 2 hrs incubation at room temperature. The un-reacted hot ATP was washed away before detection."}, "PI3Kγ": {"biological_target": "T2, PI3Kγ (Homo sapiens, UniProt P48736)", "T2 construct": "purchased Reaction Biology Corp", "T2 sequence (P48736 whole entry)": "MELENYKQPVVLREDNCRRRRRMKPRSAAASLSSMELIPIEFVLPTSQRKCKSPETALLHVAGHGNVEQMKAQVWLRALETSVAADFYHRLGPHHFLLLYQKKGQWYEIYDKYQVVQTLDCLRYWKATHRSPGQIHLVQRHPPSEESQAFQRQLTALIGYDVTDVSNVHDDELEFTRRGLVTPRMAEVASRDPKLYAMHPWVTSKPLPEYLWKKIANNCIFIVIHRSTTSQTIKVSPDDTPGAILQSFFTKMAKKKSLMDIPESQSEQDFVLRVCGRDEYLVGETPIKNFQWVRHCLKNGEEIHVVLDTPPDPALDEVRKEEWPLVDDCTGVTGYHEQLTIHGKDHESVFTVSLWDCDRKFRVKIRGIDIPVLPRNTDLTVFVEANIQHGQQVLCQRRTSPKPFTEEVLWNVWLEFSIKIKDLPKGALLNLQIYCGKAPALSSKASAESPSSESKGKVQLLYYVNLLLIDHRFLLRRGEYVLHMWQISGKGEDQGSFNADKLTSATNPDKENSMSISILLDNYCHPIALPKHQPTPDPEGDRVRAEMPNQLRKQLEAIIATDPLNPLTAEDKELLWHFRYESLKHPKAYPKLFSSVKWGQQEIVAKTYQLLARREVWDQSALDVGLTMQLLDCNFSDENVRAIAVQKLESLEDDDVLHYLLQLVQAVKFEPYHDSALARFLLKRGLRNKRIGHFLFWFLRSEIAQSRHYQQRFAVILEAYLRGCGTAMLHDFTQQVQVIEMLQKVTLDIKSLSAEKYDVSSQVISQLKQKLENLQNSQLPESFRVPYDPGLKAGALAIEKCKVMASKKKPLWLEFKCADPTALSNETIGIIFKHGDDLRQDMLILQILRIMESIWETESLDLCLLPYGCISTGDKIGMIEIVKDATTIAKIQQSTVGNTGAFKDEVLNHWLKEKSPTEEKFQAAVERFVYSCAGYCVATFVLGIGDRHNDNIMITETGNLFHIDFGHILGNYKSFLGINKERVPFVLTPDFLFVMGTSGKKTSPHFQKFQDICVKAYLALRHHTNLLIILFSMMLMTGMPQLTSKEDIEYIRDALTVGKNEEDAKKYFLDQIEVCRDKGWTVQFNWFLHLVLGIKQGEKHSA", "test": "Kinase activity in cell-free assay (HotSpot)", "format": "biochemical", "procedure": "as §1"}, "[1]": {"system": "MM cell lines LP1, OPM2, JJN3, OCI-My5, RPMI-8226, U266, KMS11", "test": "Growth inhibition assay (MTT)", "format": "cell-based", "settings": "panel of MM cell lines, within 72 hrs", "procedure": "MM cells were dispensed in 96-well plates at a density of 8×10^3 cells per well and treated with increasing concentrations of C96 for 72 hrs, and the growth inhibitory effect of C96 on MM cells was assessed by an MTT assay as reported previously. To show the effect of C96 on cell growth in the presence of growth factor IGF-1, MM cells were first maintained in IMDM media containing 0.5% FBS for 12 hrs, followed by C96 treatment alone or in combination with 100 ng/mL of IGF-1. Cells were then incubated for another 24 hrs, relative cell proliferation was analyzed by an MTT assay. […]\nwww.impactjournals.com/oncotarget/ Oncotarget, Supplementary Materials 2014 SUPPLEMENTARY FIGURES AND TABLE\nSupplementary Figure S1: C96 inhibits multiple myeloma cell proliferation. MM cell lines were treated with C96 with indicated concentrations for 72 hrs, followed by MTT assay. […]"}, "JJN3 xenograft": {"system": "JJN3 xenograft", "test": "Myeloma xenograft study", "format": "in vivo, nude mice", "procedure": "To further evaluate the anti-myeloma efficacy of C96 in vivo, a human multiple myeloma xenograft model was established by subcutaneous injection of JJN3 into nude mice. When these tumors were palpable, mice were randomly divided into two groups (n=5) and one of them were orally administrated C96 (100 mg/kg body weight, 1/10 of the oral LD50), the other one were given the same volume of vehicle on a daily base for continued 16 days. Tumor sizes and body weight were monitored every other day. […] In contrast, the tumors in the vehicle group grew in a steady rate.\nFigure 7 C96 delays myeloma tumor growth in a xenograft mouse model (A) JJN3 cells were injected subcutaneously into nude mice with a density of 30 million cells/site/mouse. When tumors were palpable, mice (n=5/group) were orally given C96 (100 mg/kg body weight) in PBS containing 10% Tween 80 and 10% DMSO daily for continuous 16 days. Tumor volumes were monitored every other day. (B) Mouse body weight was monitored every other day. (C) At the end of the experiment, tumor samples from each group were subjected to immunoblotting analysis for the expression levels of p-AKT, T-AKT, p-mTOR and mTOR with specific antibodies. GAPDH was used as a loading control.\nJJN3 cells (30 million cells/injection) were inoculated s.c. into the right flanks of nude mice (5-6 weeks old, female, Shanghai Slac Laboratory Animal Co. Ltd., Shanghai). When tumors were palpable, mice were randomly divided into two groups (n=5). One group was orally administrated C96 (100 mg/kg body weight, or 1/10 oral LD50) dissolved in PBS containing 10% Tween 80 and DMSO daily for continued 16 days, another group was received the vehicle only. Tumor sizes were measured every other day with a caliper and calculated according to the formula (V=0.5236a²b, where a is the smallest superficial diameter and b is the largest superficial diameter). Body weight of each mouse was also monitored. At the end of the experiment, mice were sacrificed in a CO2 chamber containing dry ice. Tumor tissues were then excised, weighed, and snap-frozen in liquid nitrogen for further studies. To examine protein expression, tumor tissues were minced and ultrasonicated in the lysis buffer to extract proteins, which were further applied for immunoblotting analyses using specific antibodies against AKT, p-AKT, p-mTOR, mTOR, and GAPDH. This xenograft study was carried out in accordance with The Code of Ethics of the World Medical Association (Declaration of Helsinki) for experiments in animals and it was approved by the Animal Ethics and Welfare Review Board of Soochow University."}}, "note": "“Also recorded” adds a separate entry of the source.", "data": [{"smiles": "O=C1NC(=O)C(=CC=Cc2cccs2)C(=O)N1", "note": "[C96, 5-(3-(2-thienyl)-2-propen-1-ylidene)-2,4,6(1H,3H,5H)-pyrimidinetrione]", "values": [{"measurement": "migration through 8-micrometer transwell membrane in the presence of IGF-1", "setting": "OPM2 cells", "result": "partly suppressed"}, {"measurement": "enzymatic activity AKT1", "setting": "AKT1; 300 μM", "result": "higher than 50%"}, {"measurement": "AKT1 catalytic activity", "setting": "AKT1; C96 1.00E-04 M", "result": 89.13, "unit": "%"}, {"measurement": "AKT1 catalytic activity", "setting": "AKT1; C96 1.11E-05 M", "result": 104.72, "unit": "%"}, {"measurement": "AKT1 catalytic activity", "setting": "AKT1; C96 1.23E-06 M", "result": 101.71, "unit": "%"}, {"measurement": "AKT1 catalytic activity", "setting": "AKT1; C96 1.37E-07 M", "result": 102.27, "unit": "%"}, {"measurement": "AKT1 catalytic activity", "setting": "AKT1; C96 1.52E-08 M", "result": 94.32, "unit": "%"}, {"measurement": "AKT1 catalytic activity", "setting": "AKT1; C96 3.00E-04 M", "result": 57.61, "unit": "%"}, {"measurement": "AKT1 catalytic activity", "setting": "AKT1; C96 3.33E-05 M", "result": 100.86, "unit": "%"}, {"measurement": "AKT1 catalytic activity", "setting": "AKT1; C96 3.70E-06 M", "result": 110.72, "unit": "%"}, {"measurement": "AKT1 catalytic activity", "setting": "AKT1; C96 4.12E-07 M", "result": 99.76, "unit": "%"}, {"measurement": "AKT1 catalytic activity", "setting": "AKT1; C96 4.57E-08 M", "result": 103.80, "unit": "%"}, {"measurement": "IC50 AKT1", "setting": "AKT1; cell-free", "result": "not detectable"}, {"measurement": "IC50", "setting": "PI3Kγ", "result": 116, "unit": "µM"}, {"measurement": "cell proliferation and viability (MTT)", "setting": "[1]", "result": "suppressed cell proliferation and reduced cell viability"}, {"measurement": "effects on body weight", "setting": "JJN3 xenograft; 100 mg/kg oral daily, 16-day treatment", "result": "minimal effects"}, {"measurement": "gross toxicity", "setting": "JJN3 xenograft; 100 mg/kg oral daily, 16 days", "result": "no gross toxicity"}, {"measurement": "tumor growth", "setting": "JJN3 xenograft; 100 mg/kg oral daily, 16 days", "result": "almost fully suppressed tumor growth; also recorded: delayed MM tumor growth"}, {"measurement": "tumor growth suppression", "setting": "JJN3 xenograft; 100 mg/kg oral daily, within 16 days", "result": "more than 90%"}, {"measurement": "AKT and mTOR phosphorylation in myeloma tumor tissues", "setting": "JJN3 xenograft; tumors excised at end of experiment, immunoblotting", "result": "decreased"}]}]}
